From ChEMBL document CHEMBL5352481, “Discovery of small-molecule protein stabilizers toward exogenous alpha-l-iduronidase to reduce the accumulated heparan sulfate in mucopolysaccharidosis type I cells” (Eur J Med Chem, 2023)
Active and inactive are the calls of the source. No cut-off for these calls is given here.

Key:
[1] = biological target: T1, Alpha-L-iduronidase (Homo sapiens) (UniProt P35475); test: Stabilization of human recombinant alpha-L-iduronidase in human GM01391 cells assessed as fold increase in IDUA activity at 100 uM incubated for 1 day followed by 1 day washout relative to control; assay type: cell-based
T1 sequence (whole entry): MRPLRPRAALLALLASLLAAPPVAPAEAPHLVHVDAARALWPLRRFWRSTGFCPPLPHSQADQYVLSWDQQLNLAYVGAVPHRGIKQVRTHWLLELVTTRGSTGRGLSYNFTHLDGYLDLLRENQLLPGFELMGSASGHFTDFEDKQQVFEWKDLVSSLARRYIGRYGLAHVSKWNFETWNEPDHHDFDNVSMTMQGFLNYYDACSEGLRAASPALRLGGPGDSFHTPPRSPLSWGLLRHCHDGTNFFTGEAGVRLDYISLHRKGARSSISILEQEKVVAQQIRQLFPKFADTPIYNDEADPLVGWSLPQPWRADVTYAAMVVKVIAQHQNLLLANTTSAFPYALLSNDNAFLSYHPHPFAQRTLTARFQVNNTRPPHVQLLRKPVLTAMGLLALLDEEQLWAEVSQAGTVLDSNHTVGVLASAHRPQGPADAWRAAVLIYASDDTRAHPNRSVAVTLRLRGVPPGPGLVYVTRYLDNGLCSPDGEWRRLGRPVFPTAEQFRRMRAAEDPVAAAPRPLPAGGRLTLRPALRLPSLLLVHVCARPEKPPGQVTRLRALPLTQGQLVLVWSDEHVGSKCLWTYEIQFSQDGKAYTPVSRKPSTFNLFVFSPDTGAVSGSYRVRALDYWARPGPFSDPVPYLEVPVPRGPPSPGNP

Alpha-L-iduronidase [2] = biological target: T2, Alpha-L-iduronidase (Homo sapiens, UniProt P35475); test: Inhibition of human recombinant alpha-L-iduronidase using 4-methylumbelliferyl-alpha-iduronide as fluorogenic substrate assessed as inhibition constant by Lineweaver-Burk plot analysis
T2 sequence (P35475 whole entry): T1 sequence (whole entry)

[3] = biological target: T1, Alpha-L-iduronidase (Homo sapiens); test: Stabilization of human recombinant alpha-L-iduronidase in human GM01391 cells assessed as fold increase in IDUA activity at 500 uM incubated for 1 day followed by 1 day washout relative to control; assay type: cell-based
[4] = biological target: T1, Alpha-L-iduronidase (Homo sapiens); test: Stabilization of human recombinant alpha-L-iduronidase in human GM01391 cells assessed as fold increase in IDUA activity at 500 uM measured after 9 days relative to control; assay type: cell-based; details: time 9.0 day
[5] = biological target: T1, Alpha-L-iduronidase (Homo sapiens); test: Stabilization of human recombinant alpha-L-iduronidase in human GM02846 cells assessed as increase in IDUA activity incubated for 1 day followed by 1 day washout; assay type: cell-based; details: dose 10-500 µM
[6] = biological target: T1, Alpha-L-iduronidase (Homo sapiens); test: Stabilization of human recombinant alpha-L-iduronidase in human GM01391 cells assessed as reduction in heparan sulfate level at 500 uM incubated for 1 day followed by 1 day washout; assay type: cell-based
Alpha-L-iduronidase [7] = biological target: T2, Alpha-L-iduronidase; test: Inhibition of human recombinant alpha-L-iduronidase using 4-methylumbelliferyl-alpha-iduronide as fluorogenic substrate
[8] = biological target: T1, Alpha-L-iduronidase (Homo sapiens); test: Stabilization of human recombinant alpha-L-iduronidase in human GM02846 cells assessed as reduction in heparan sulfate level at 10 to 500 uM incubated for 1 day followed by 1 day washout; assay type: cell-based; details: dose 10-500 µM
Alpha-L-iduronidase [9] = biological target: T2, Alpha-L-iduronidase; test: Inhibition of human alpha-L-iduronidase using 4-methylumbelliferyl-alpha-L-iduronide as substrate assessed as inhibition constant
[10] = biological target: T1, Alpha-L-iduronidase (Homo sapiens); test: Stabilization of human recombinant alpha-L-iduronidase in human GM01391 cells assessed as increase in IDUA activity at 100 uM incubated for 1 day followed by 1 day washout; assay type: cell-based
[11] = biological target: T1, Alpha-L-iduronidase (Homo sapiens); test: Inhibition of human recombinant alpha-L-iduronidase using 4-methylumbelliferyl-alpha-iduronide as fluorogenic substrate at 250 uM relative to control
[12] = biological target: T1, Alpha-L-iduronidase (Homo sapiens); test: Inhibition of human recombinant alpha-L-iduronidase using 4-methylumbelliferyl-alpha-L-iduronide as fluorogenic substrate at 0.1 mM relative to control
Alpha-L-iduronidase [13] = biological target: T2, Alpha-L-iduronidase; test: Inhibition of alpha-L-iduronidase (unknown origin) assessed as inhibition constant
Alpha-L-iduronidase [14] = biological target: T2, Alpha-L-iduronidase; test: Inhibition of human seminal fluid alpha-L-iduronidase using 4-methylumbelliferyl-alpha-L-idosiduronic acid as substrate incubated for 1 hr by fluorescence based assay

SMILES	IC50 (Alpha-L-iduronidase [7]) [µM]	Activity [10]	inhibition [11] [%]	other results
NCC[C@@H]1O[C@@H](C(=O)O)[C@@H](O)[C@H](O)[C@H]1O	6.7			fold change (FC) [1]: 1.4; Ki (Alpha-L-iduronidase [2]): 4 µM; fold change (FC) [3]: 3; fold change (FC) [4]: > 1.6; Activity [5]: Dose-Dependent Effect; Activity [6]: Active; Activity [8]: Active
O=C1N[C@@H](C(=O)O)[C@@H](O)[C@H](O)[C@H]1O				Ki (Alpha-L-iduronidase [9]): 94 µM
O=C(Cc1ccc(OP(=O)(O)O)cc1)NCC[C@@H]1N[C@@H](C(=O)O)[C@@H](O)[C@H](O)[C@H]1O		inactive	< 10	
O=C(Cc1ccccc1OP(=O)(O)O)NCC[C@@H]1N[C@@H](C(=O)O)[C@@H](O)[C@H](O)[C@H]1O		inactive	43	
O=C(O)[C@H]1[C@@H](O)[C@H](O)[C@@H](O)c2nnnn21				Ki (Alpha-L-iduronidase [9]): 1300 µM
O=C(Cc1cccc(OP(=O)(O)O)c1)NCC[C@@H]1N[C@@H](C(=O)O)[C@@H](O)[C@H](O)[C@H]1O		inactive	< 10	
NCC[C@@H]1N[C@@H](C(=O)O)[C@@H](O)[C@H](O)[C@H]1O		inactive	< 10	
O=C(/C=C/c1ccccc1)NCc1cn([C@@H]2O[C@@H](C(=O)O)[C@@H](O)[C@H](O)[C@H]2O)nn1				inhibition [12]: 74%
O=C(O)[C@]1(F)O[C@@H](F)[C@H](O)[C@@H](O)[C@@H]1O				Ki (Alpha-L-iduronidase [13]): 1.2 µM
O=C(Cc1ccc(OP(=O)(O)O)cc1)NCC[C@@H]1O[C@@H](C(=O)O)[C@@H](O)[C@H](O)[C@H]1O	5.4	Active		
O=C(Cc1ccccc1OP(=O)(O)O)NCC[C@@H]1O[C@@H](C(=O)O)[C@@H](O)[C@H](O)[C@H]1O	1	inactive		
O=C(Cc1cccc(OP(=O)(O)O)c1)NCC[C@@H]1O[C@@H](C(=O)O)[C@@H](O)[C@H](O)[C@H]1O	4			fold change (FC) [1]: 1.6
O=C1O[C@H]([C@@H](O)C(=O)O)[C@H](O)[C@H]1O				IC50 (Alpha-L-iduronidase [14]): 40 µM
